Where “and” joins values, the source holds several entries; their conditions need not be identical. Identical values can stand only once. Entries after “also recorded” stand apart in the source; their conditions may differ. Ends that are not written are not given here.
Columns and labels:
[1] = Stability tests under extreme conditions (freezing 24 hours; heating at 100° C. for 10 minutes), HPLC; format: physicochemical
From the text: In the vertical axis the area of the HPLC peak is shown. […] Statistical significance data are also shown, the asterisks indicating: (*) P<0.05 vs Control (***) P<0.005 vs Control; (****) P<0.0001 vs Control.

[2] = tested on: CB1 receptor; assay: Screening with anti-CB1 antibodies sensitive to activation/conformational changes, ELISA on Striatum membranes; format: binding; conditions: ligands 1 μM, Assay 1-5
Procedure: Antibodies sensitive to CB1 receptor activation were generated and characterized by their specificities. For screening compounds, Striatum membranes (5 μg per well) were plated on NUNC-Immuno 96-well plates (Nalge-Nunc) and dried at room temperature. Membranes were washed with PBS (phosphate buffered saline) and incubated with or without different ligands (1 μM) and the extent of receptor recognition by the antibodies was measured by ELISA. The results of the tests are shown in Table 5, which indicates the % binding to the CB1 receptor in relation to control: […]

[3] = tested on: pilocarpine model; assay: Pilocarpine model, oral pre-treatment (salivation, first signal, seizure, death/survival); format: in vivo, Mus musculus; set-up: time of occurrence of the first seizure: unit not given here; conditions: for neuroprotection, survival/death profile after 24 hours: FIG. 7, 600 μg/kg, n=5 per group, compared with SEQ ID No. 1; for time of occurrence of the first salivation: Table 1; for time of occurrence of the first salivation / time of occurrence of the first signal / time of occurrence of the first seizure / time of death occurrence: oral, 10 minutes prior to pilocarpine 320 mg/kg i.p., individual animals; for time of occurrence of the first signal: Table 2; for time of occurrence of the first seizure: Table 3; for time of death occurrence: Table 4
Procedure: In some examples, the neuromodulatory/neuroprotective/anticonvulsive effects of the composition of the invention have been evaluated in vivo by oral administration to animals. The pharmaceutical composition of the invention was administered to mammals (Mus musculus or mouse) with an oral dose of treatment with different embodiments of the compound of the invention, compared to other compounds or to saline control. In these experiments, the test compounds were administered orally 10 minutes prior to (intraperitoneal) administration of pilocarpine. Pilocarpine hydrochloride (320 mg/kg, Merck), dissolved in 0.9% sterile saline, was given intraperitoneally for induction of SE (status epileticus) (Turski et al., 1983). In the Turski model, the neurotoxic effects begin about 15-25 minutes after the injection of Pilo, with the occurrence of motor and limbic seizures, the animals evolving to a state of continuous (clonic) seizures that characterize SE Sanabria and Cavalheiro, 2000).
In this embodiment, the anticonvulsive effect of the composition of the invention prepared according to Example 2 was evaluated by prior administration of the inventive composition and subsequent administration of pilocarpine to animals. FIG. 4 presents the results of the pilocarpine model, indicating the time for the first salivation with the administration of control, cannabidiol (30 mg/kg), the compound of the invention R1-N-AA1-K-AA2-R2, in which embodiment is the tetrapeptide of SEQ ID No. 1 (500 μg/kg).
In this embodiment, the neuromodulatory effect of the composition of the invention prepared according to Example 2 was evaluated by prior administration of the inventive composition and subsequent administration of pilocarpine to animals. Other test compounds were also evaluated as described below. Administration of pilocarpine leads to severe brain injury, neurotoxicity and usually culminates in the death of the animals. This substance was used in the experiments described below but its harmful neuronal/encephalic effects were inhibited by the prior administration of the composition of the present invention: the vast majority of the animals subjected to these experiments had no symptoms related to brain lesions and survived without apparent damage, in contrast to groups of animals treated with other known substances.
The composition of the invention was prepared according to Example 2 with due concentration correction, for comparison of the effects of SEQ ID No. 1, SEQ ID No. 7 and NFK, such compounds having been previously administered to the animal groups.
In this embodiment, the anticonvulsant effect of different embodiments of the compound of the invention with the structure represented by SEQ ID No. 1, SEQ ID No. 7, NFK, FKF, FKL, as well as the NF, FK, KF and KL dipeptides were evaluated in the pilocarpine model.

[4] = target: T1, human CB1 receptor (Homo sapiens, UniProt P21554); assay: In vitro radioligand binding, [3H] CP 55940, recombinant CHO cells; conditions: reference radioligand agonist
T1 construct: expressed in transfected cells; host or cells: CHO cells
T1 sequence (P21554 whole entry): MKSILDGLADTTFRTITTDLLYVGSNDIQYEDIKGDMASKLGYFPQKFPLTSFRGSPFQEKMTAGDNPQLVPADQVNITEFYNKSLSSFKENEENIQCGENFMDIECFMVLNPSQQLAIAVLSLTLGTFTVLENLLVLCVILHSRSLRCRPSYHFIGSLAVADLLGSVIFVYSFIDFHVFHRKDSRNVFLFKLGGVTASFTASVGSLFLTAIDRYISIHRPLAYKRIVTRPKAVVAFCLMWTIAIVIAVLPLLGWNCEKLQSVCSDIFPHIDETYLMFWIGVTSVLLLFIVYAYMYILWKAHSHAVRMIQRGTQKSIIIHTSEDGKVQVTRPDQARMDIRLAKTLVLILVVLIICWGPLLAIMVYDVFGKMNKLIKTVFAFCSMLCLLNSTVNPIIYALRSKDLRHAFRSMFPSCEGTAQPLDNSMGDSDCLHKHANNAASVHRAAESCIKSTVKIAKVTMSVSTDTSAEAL
Procedure: In vitro binding assays were performed using recombinant CHO cells expressing the human CB1 receptor and the [3H]
Results are expressed as the percentage of binding of the specific control according to formula: […]
And the percentual inhibition of binding of specific control obtained in the presence of the compound of the invention is:
IC50 values (concentration that causes half of maximal inhibition of specific control binding) and Hill (nH) coefficients were determined by nonlinear regression of the competition curves generated with the mean values of the replicates using the Hill equation:
Where Y=specific binding, A=asymptotic left of curve, D=asymptotic right of curve, C=compound concentration, C50=IC50 and nH=curve coefficient/slope factor. This analysis was performed using the Hill software validated by comparison with data generated by Sigmaplot 4.0 software. Inhibition constants (Ki) were calculated using the equation of Chen Prusoff:
Where L=concentration of the radioligand in the assay; KD=affinity of the radioligand for the receptor. A graph is used to determine the KD.

[5] = tested on: pain threshold; assay: Pain threshold model, pressure apparatus on right paw; format: in vivo, rats; conditions: oral, 0.5 to 0.25 mg/kg, individual animals
Procedure: The compounds of the present invention have also been tested as analgesics or neuropathic pain modulators. To that end, the compounds PVNFKF, PVNFK, VNFKF, SEQ ID No. 1 were tested in the pain threshold model. The pain threshold was measured using a pressure apparatus (Ugo Basile, Italy), essentially as described (Randall and Selitto, 1957). Briefly, a force of increasing magnitude (16 g/s) was applied to the back of the right paw of rats. When animals react by kicking, the force in grams required to induce this response is the threshold of pain. Antinoniceptive activity was expressed as the increase in pain threshold compared to control animals.
The compounds of the invention were administered orally to the animals at doses of 0.5 to 0.25 mg/kg and saline was used as a control.

[6] = target: CB1 receptor in Striatum membranes; assay: ELISA on Striatum membranes: CB1 recognition by conformation-sensitive anti-CB1 antibody after incubation with 1 µM ligand; assay 1
CB1 receptor in Striatum membranes, sequence (P21554 whole entry): as above

[7] = target: CB1 receptor in Striatum membranes; assay: ELISA on Striatum membranes: CB1 recognition by conformation-sensitive anti-CB1 antibody after incubation with 1 µM ligand; assay 2
[8] = target: CB1 receptor in Striatum membranes; assay: ELISA on Striatum membranes: CB1 recognition by conformation-sensitive anti-CB1 antibody after incubation with 1 µM ligand; assay 3
[9] = target: CB1 receptor in Striatum membranes; assay: ELISA on Striatum membranes: CB1 recognition by conformation-sensitive anti-CB1 antibody after incubation with 1 µM ligand; assay 4
[10] = target: CB1 receptor in Striatum membranes; assay: ELISA on Striatum membranes: CB1 recognition by conformation-sensitive anti-CB1 antibody after incubation with 1 µM ligand; assay 5
[11] = target: T2, recombinant human CB2 cannabinoid receptor (human, UniProt P34972 1-360); assay: [3H]WIN 55212-2 radioligand displacement on CHO cells expressing human CB2
T2 construct: whole, on cells; also called human CB2 receptor
T2 sequence (P34972 whole entry): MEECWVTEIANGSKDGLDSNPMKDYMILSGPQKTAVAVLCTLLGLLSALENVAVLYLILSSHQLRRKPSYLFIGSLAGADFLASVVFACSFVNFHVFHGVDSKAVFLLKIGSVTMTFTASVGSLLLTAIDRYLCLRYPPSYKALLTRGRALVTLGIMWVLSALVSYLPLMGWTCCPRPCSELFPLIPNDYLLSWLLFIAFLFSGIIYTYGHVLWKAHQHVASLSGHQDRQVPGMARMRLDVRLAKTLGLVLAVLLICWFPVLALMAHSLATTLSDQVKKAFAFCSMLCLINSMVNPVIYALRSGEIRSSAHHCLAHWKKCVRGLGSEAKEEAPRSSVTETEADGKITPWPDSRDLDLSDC
Procedure: In vitro binding assays were performed using recombinant CHO cells expressing human CB2 receptor and [3H]

[12] = heating at 100° C. for 10 minutes

Molecule: CC(C)C[C@H](NC(=O)[C@H](Cc1ccccc1)NC(=O)[C@H](CCCCN)NC(=O)[C@H](Cc1ccccc1)NC(=O)[C@H](CC(N)=O)NC(=O)[C@@H](NC(=O)[C@@H]1CCCN1)C(C)C)C(=O)N[C@@H](CO)C(=O)N[C@@H](Cc1cnc[nH]1)C(=O)O [Hp, hemopressin]
- area of the HPLC peak, control ([1]; control sample, n=2): 140
- area of the HPLC peak after freezing ([1]; freezing for 24 h): 97
- part lost or degraded by freezing ([1]; freezing for 24 h): approximately 31%
- area of the HPLC peak after heating [1, 12]: 50
- part lost or degraded upon heating [1, 12]: approximately 64.3%
- % binding to the CB1 receptor in relation to control [2]: 91.33% and 92.74% and 97.05% and 90.23% and 73.49%

Molecule: SEQ ID No. 7: tetrapeptide of SEQ ID No. 7, embodiment of R1-N-AA1-K-AA2-R2; sequence not printed in the text (NFKL; Synthesized in laboratory)
- neuroprotection, survival/death profile after 24 hours [3]: even better than those obtained with SEQ ID No. 1
- time of occurrence of the first salivation [3]: 1.25 min (2×) and 1.183 min and 1.067 min and 2.45 min
- time of occurrence of the first signal [3]: 10.25 min and 9.317 min and 10.17 min (2×) and 3.83 min
- time of occurrence of the first seizure [3]: 15.33 (2×) and 18.4 and 30 and 27.3
- time of death occurrence [3]: 26.63 min and 25.13 min and 13.5 min

Molecule: CCCCCCC(C)(C)c1ccc([C@@H]2C[C@H](O)CC[C@H]2CCCO)c(O)c1 [CP 55940, reference compound]
- nH [4]: 1

Molecule: Cc1c(C(=O)c2cccc3ccccc23)c2cccc3c2n1[C@H](CN1CCOCC1)CO3 [WIN 55212-2]
- % binding to the CB1 receptor in relation to control ([2]; listed as Win): 111.483% and 117.95% and 125.56% and 127.52% and 122.49%

Molecule: C=C(C)[C@@H]1CCC(C)=C[C@H]1c1c(O)cc(CCCCC)cc1O [cannabidiol, reference compound]
- time for first salivation vs control (significance) ([3]; FIG. 4, cannabidiol 30 mg/kg, SEQ ID No. 1 500 μg/kg): does not present statistical significance
- prostration and nasal bleeding ([3]; SEQ ID No. 1 500 μg/kg, cannabidiol 30 mg/kg): both prostration and the nasal bleeding was observed; also recorded: both prostration and bleeding were observed

Molecule: RVDHp: N-extended version of hemopressin, RVD-Hp (pepcan 12) (RVDPVNFKLLSH; Hemoglobin subunit alpha; UniProt P69905 93-104, looked up, fragment)
- % binding to the CB1 receptor in relation to control [2]: 103.39% and 111.53% and 110.87% and 114.76% and 105.22%

Molecule: VNFKF
- pain threshold, force ([5]; After 3 h): 85 grams and 40 grams and 35 grams and 50 grams (3×)
- pain threshold, force ([5]; Immediate): 70 grams (2×) and 65 grams (2×) and 75 grams (2×)

Molecule: FKL
- time of occurrence of the first salivation [3]: 0.333 min and 1.6 min and 0.2 min and 0.633 min and 1.5 min
- time of occurrence of the first signal [3]: 9.17 min and 5.67 min and 9.5 min and 8.5 min and 4.5 min
- time of occurrence of the first seizure [3]: 5.3 and 6.35 and 4.83 and 8.82
- time of death occurrence [3]: 14.53 min and 11.7 min and 10.92 min

Molecule: PVNFKF [reference compound]
- pain threshold, force ([5]; After 3 h): 45 grams (2×) and 30 grams and 55 grams (2×) and 65 grams
- pain threshold, force ([5]; Immediate): 75 grams (2×) and 65 grams and 60 grams and 70 grams and 80 grams

Molecule: VDHp (peptide)
- % binding to the CB1 receptor in relation to control [6]: 116 % of control
- % binding to the CB1 receptor in relation to control [7]: 114 % of control
- % binding to the CB1 receptor in relation to control [8]: 131 % of control
- % binding to the CB1 receptor in relation to control [9]: 129 % of control
- % binding to the CB1 receptor in relation to control [10]: 113 % of control

Molecule: FKF
- time of occurrence of the first salivation [3]: 0.38 min and 0.95 min and 0.50 min and 1.50 min
- time of occurrence of the first signal [3]: 5.3 min and 6.35 min and 8.33 min and 8.82 min
- time of occurrence of the first seizure [3]: 10.25 and 6.28 and 8.92 and 3.83 and 7.82
- time of death occurrence [3]: 12.9 min and 13.17 min and 20.67 min and 16.67 min and 13.5 min

Molecule: RVDHp (peptide)
- % binding to the CB1 receptor in relation to control [6]: 103 % of control
- % binding to the CB1 receptor in relation to control [7]: 112 % of control
- % binding to the CB1 receptor in relation to control [8]: 111 % of control
- % binding to the CB1 receptor in relation to control [9]: 115 % of control
- % binding to the CB1 receptor in relation to control [10]: 105 % of control

Molecule: NFK
- neuroprotection, survival/death profile after 24 hours [3]: equivalent to those obtained with SEQ ID No. 1
- occurrence of first salivation (in words) ([3]; FIG. 8): inhibited or delayed the occurrence of first salivation
- time of occurrence of the first salivation [3]: 1.38 min and 0.75 min and 0.42 min and 0.98 min
- time of occurrence of the first signal [3]: 6.28 min and 8.92 min and 4.83 min and 7.82 min
- time of occurrence of the first seizure [3]: 13.38 and 11.33 and 9.67 and 8 and 9.93
- time of death occurrence [3]: 16.83 min and 13.53 min and 11.7 min and 10.92 min and 10.87 min

Molecule: PVNFK [reference compound]
- pain threshold, force ([5]; After 3 h): 55 grams (2×) and 45 grams and 40 grams (2×) and 60 grams
- pain threshold, force ([5]; Immediate): 70 grams and 75 grams (3×) and 65 grams and 60 grams

B1: tetrapeptide SEQ ID No. 1 (peptide)
peptide: NFKF
notes: Synthetic peptide; for the radioligand assays it was a 10 mM stock solution in DMSO
- binding result [11]: no binding (tested: 1 and 10 µM)

B2: SEQ ID No. 1-Biotin (peptide)
peptide: NFKF
modifications: also: biotin, position not given here
- % binding to the CB1 receptor in relation to control [6]: 89.2 % of control
- % binding to the CB1 receptor in relation to control [7]: 85.5 % of control
- % binding to the CB1 receptor in relation to control [8]: 83.3 % of control
- % binding to the CB1 receptor in relation to control [9]: 84.8 % of control
- % binding to the CB1 receptor in relation to control [10]: 97.5 % of control

B3: hemopressin (peptide)
peptide: PVNFKFLSH
- % binding to the CB1 receptor in relation to control [6]: 91.3 % of control
- % binding to the CB1 receptor in relation to control [7]: 92.7 % of control
- % binding to the CB1 receptor in relation to control [8]: 97 % of control
- % binding to the CB1 receptor in relation to control [9]: 90.2 % of control
- % binding to the CB1 receptor in relation to control [10]: 73.5 % of control

Reference: patent publication US20220098237A1, “COMPOUND, SYNTHESIS INTERMEDIATE, USE, PHARMACEUTICAL COMPOSITION AND NEUROMODULATORY THERAPEUTIC METHOD” (Remer Consultores Assessoria Empresarial Ltda, priority 2017, published 2022)
